{"source": "paper PMC7365463", "about": "“Oxfendazole mediates macrofilaricidal efficacy against the filarial nematode Litomosoides sigmodontis in vivo and inhibits Onchocerca spec. motility in vitro” (PLoS Neglected Tropical Diseases, 2020)", "key": {"[1]": {"system": "Brugia pahangi", "set-up": "method as in Devaney 1985 (Ref. 8)", "settings": "50L3, balb/c, SC 10 or 50 mg/kg 5 cons. days, 4 days p.i., necropsy 3-4 weeks p.t.; ref Devaney 1985 (Ref. 8); cited from earlier work"}, "[2]": {"system": "Acanthocheilonema viteae", "set-up": "method as in Nogami 1987 (Ref. 13)", "settings": "50L3 (SC), hamster, SC 10mg/kg 5 cons. days, 12 weeks p.i, necropsy 5 weeks p.t.; ref Nogami 1987 (Ref. 13); cited from earlier work"}, "[3]": {"system": "Brugia pahangi", "settings": "100L3 (SC), cats, SC 100-400mg/kg x1, patent phase, necropsy 46-51 days p.t.; ref Denham 1979 (Ref. 4); cited from earlier work"}, "[4]": {"system": "mammalian tubulin", "set-up": "method as in PMID 6712717, PMID 1554382", "settings": "cited from earlier work"}, "[5]": {"set-up": "method as in PMID 1687815", "settings": "rat/sheep/cattle, published data; cited from earlier work"}, "[6]": {"system": "AMES bacterial assay", "settings": "in vitro; cited from earlier work"}, "[7]": {"experiment": "Plasma pharmacokinetics in mice (oral and subcutaneous)", "format": "in vivo, BALB/c mice", "settings": "for AUC(0-t) / Cmax / Tmax / half-life: female, BALB/c, mouse, plasma", "procedure": "Female BALB/c mice (6 to 9-weeks old) were used to determine the plasma concentrations of oxfendazole. Animals were allocated to groups of three animals per dose, such that the mean weight of animals in each group was similar. All animals had access to a certified rodent diet (Beijing Keao […] Co, Ltd) and water ad libitum. In this study, all animals were fasted 12 h before dosing and returned to food 4 h post dose. Commercially available oxfendazole (Sigma Aldrich and Dolthene, Merial) was administered to animals. […] A commercially available formulation of oxfendazole, Dolthene, was diluted in corn oil and administered by oral gavage. After administration of the drug substances by oral gavage, blood samples were collected from each animal via the saphenous or mandibular veins at 0.25, 0.5, 1, 2, 4, 8, 12 and 24 h post dosing. For administration via the sc route, samples were collected from each animal 1, 3, 6, 9, 12, 18, 24, 36, 48, 72, 96, and 120 h post dosing. All samples were transferred into plastic tubes containing K2-EDTA (0.5 M) as an anti-coagulant and stored on ice until plasma preparation by centrifugation at 5°C (3000 g, 15 min). Analysis was conducted by LC-MS/MS (API 4000). Mobile phases were mixtures of acetonitrile (ACN) and water to which formic acid and 1 mM NH4OAc were added (0.025%, v/v). The ratio ACN/water was 5:95 (v/v) in the mobile phase A and 95:5 (v/v) in the mobile phase B. […] Electrospray positive ionization with selected ion MS/MS monitoring was used for the determination of oxfendazole: m/z 316.0/159.1."}, "[8]": {"set-up": "method as in earlier work", "settings": "in vivo, lack of potential for aneuploidy; cited from earlier work"}, "[9]": {"system": "L. sigmodontis microfilariae", "experiment": "L. sigmodontis microfilariae-injected naïve mice", "format": "in vivo, Litomosoides sigmodontis", "settings": "mice injected with 100,000 microfilariae, BID 2 x 12.5 mg/kg per os for 5 days", "procedure": "To investigate the in vivo efficacy of oxfendazole on microfilariae, microfilariae were isolated from peripheral blood of L. sigmodontis-infected cotton rats according to Chandrashekar et al. (1984) using a sucrose percoll gradient. 100,000 microfilariae were injected into the tail vein of naïve mice as previously described. Microfilariae-injected mice were treated with a commercial formulation of oxfendazole (Dolthene) twice daily with 2 x 12.5 mg/kg per os. As a positive control, additional mice were treated with a single intraperitoneal dose of ivermectin (5 mg/kg) in DMSO/PEG400/H20dest with a ratio of 1:7:2 according to Halliday et al.. Control animals received no treatment."}, "[10]": {"experiment": "Bioavailability in dog (in-house)", "settings": "in vivo, oral, in-house data at high dose of 25 mg/kg, read-out: Bioavailability (F)", "text": "Table 1 Human pharmacokinetic prediction for oxfendazole."}, "[11]": {"set-up": "method as in PMID 25701764", "settings": "rat, published data; cited from earlier work"}, "[12]": {"system": "Onchocerca volvulus pre-adult L5 worms", "experiment": "O. volvulus pre-adult (L5) worm motility assay", "settings": "read-out: IC50 of motility inhibition", "procedure": "Cryopreserved O. volvulus L3 were thawed, washed and co-cultured with normal human PBMC as previously described. […] The L4 larvae were then transferred into a transwell (Sigma #CLS3472), ~10 L4 per transwell within a 24-well plate and over a monolayer comprised of Human Umbilical Vein Endothelial Cells (HUVEC; Lonza Inc., Allendale, NJ) seeded at a density of 1 x 10^4 cells per well. The larvae were cultured for 80 days using L4 complete media: 1:1 NCTC-109: MEM-alpha and EBM-2 (Clonetics EBM-2 Lonza# CC-3156) at a 60:40 ratio. […] Medium was exchanged 3 times a week and fresh HUVEC monolayers were prepared weekly. A week prior to performing the drug screening assay, the L4 day 80 that has molted to pre-adult worms, L5, were transferred from the transwells into a small petri dish containing fresh complete media. 7–10 L5 worms were retrieved from the petri dish and placed in new transwells containing a freshly prepared HUVEC monolayer. […] After 14 days of treatment, the drug containing media was replaced by complete media without drug. Continuing this assay for a further 19 days, the worms were supplied with fresh media every 2–3 days and the weekly use of fresh HUVEC monolayers. […] All drug concentrations were tested in duplicate. […] IC50 values were calculated using Graph Pad Prism v8.3."}, "[13]": {"settings": "PO, nominal dose 5 mg/kg (administered 4.8)"}, "[14]": {"settings": "PO, nominal dose 25 mg/kg (administered 26.3)"}, "[15]": {"settings": "SC, nominal dose 1 mg/kg (administered 1.0)"}, "[16]": {"settings": "SC, nominal dose 25 mg/kg (administered 27.5)"}}, "note": "pIC50: −log10 of the molar value. Read-outs that look alike come from different tables or passages of the source."}
{"smiles": "COC(=O)Nc1nc2cc(C(=O)c3ccc(F)cc3)ccc2[nH]1", "note": "[flubendazole]", "values": [{"measurement": "Reduction of worm burden", "setting": "[1]", "result": 100, "unit": "%"}, {"measurement": "Reduction of worm burden", "setting": "[2]", "result": 68, "unit": "%"}, {"measurement": "Reduction of worm burden", "setting": "[3]", "result": 100, "unit": "%"}]}
{"smiles": "COC(=O)Nc1nc2ccc([S+]([O-])c3ccccc3)cc2[nH]1", "note": "(stereo not shown) [oxfendazole]", "values": [{"measurement": "inhibition of mammalian tubulin polymerization", "setting": "[4]", "result": "poor inhibition"}, {"measurement": "Bioavailability (F)", "setting": "[5]", "result": ">50", "unit": "%"}, {"measurement": "toxicity in AMES bacterial assay", "setting": "[6]", "result": "did not exhibit toxicity"}, {"measurement": "Cmax oral versus sc", "setting": "[7]; 25 mg/kg, higher in the oral treated group", "result": "about 6 times"}, {"measurement": "AUC(0-t)", "setting": "[7]; [13]", "result": 14700, "unit": "ng·h/mL"}, {"measurement": "Cmax", "setting": "[7]; [13]", "result": 2530, "unit": "ng/mL"}, {"measurement": "Tmax", "setting": "[7]; [13]", "result": 1.67, "unit": "h"}, {"measurement": "half-life", "setting": "[7]; PO, nominal dose 5 mg/kg (administered 4.8), read-out: T1/2 (converted)", "result": 2.87, "unit": "h"}, {"measurement": "AUC(0-t)", "setting": "[7]; [14]", "result": 50300, "unit": "ng·h/mL"}, {"measurement": "Cmax", "setting": "[7]; [14]", "result": 8590, "unit": "ng/mL"}, {"measurement": "Tmax", "setting": "[7]; [14]", "result": 2, "unit": "h"}, {"measurement": "half-life", "setting": "[7]; PO, nominal dose 25 mg/kg (administered 26.3), read-out: T1/2 (converted)", "result": 1.87, "unit": "h"}, {"measurement": "AUC(0-t)", "setting": "[7]; [15]", "result": 1280, "unit": "ng·h/mL"}, {"measurement": "Cmax", "setting": "[7]; [15]", "result": 131, "unit": "ng/mL"}, {"measurement": "Tmax", "setting": "[7]; [15]", "result": 1.67, "unit": "h"}, {"measurement": "half-life", "setting": "[7]; SC, nominal dose 1 mg/kg (administered 1.0), read-out: T1/2 (converted)", "result": 24.8, "unit": "h"}, {"measurement": "AUC(0-t)", "setting": "[7]; [16]", "result": 20800, "unit": "ng·h/mL"}, {"measurement": "Cmax", "setting": "[7]; [16]", "result": 1450, "unit": "ng/mL"}, {"measurement": "Tmax", "setting": "[7]; [16]", "result": 2.33, "unit": "h"}, {"measurement": "half-life", "setting": "[7]; SC, nominal dose 25 mg/kg (administered 27.5), read-out: T1/2 (converted)", "result": 76, "unit": "h"}, {"measurement": "Cmax", "setting": "[7]; oral administration of 5 mg/kg", "result": 8, "unit": "µM"}, {"measurement": "Cmax", "setting": "[7]; oral administration of 25 mg/kg", "result": 27, "unit": "µM"}, {"measurement": "Tmax", "setting": "[7]; other: oral and sc, all groups (oral and sc)", "result": "~2", "unit": "h"}, {"measurement": "half-life", "setting": "[7]; other: oral and sc, both routes of administration, read-out: half-life T1/2 during the first 12 h (converted)", "result": "~2", "unit": "h"}, {"measurement": "AUC0-last oral versus sc", "setting": "[7]; higher when administered orally", "result": 2.4, "unit": "times"}, {"measurement": "terminal half-life sc versus T1/2 by oral route", "setting": "[7]; terminal phase starting 12 h after dosing, longer for sc", "result": "~40", "unit": "times"}, {"measurement": "rat micronucleus assay outcome", "setting": "[8]", "result": "confirmed the in vitro results"}, {"measurement": "direct microfilaricidal effect in vivo", "setting": "[9]", "result": "no direct microfilaricidal effect"}, {"measurement": "bioavailability", "setting": "[10]", "result": "~10", "unit": "%"}, {"measurement": "Half-Life (HL), via predicted Vss/CL", "setting": "human", "result": 14.4, "unit": "h"}, {"measurement": "Half-Life (HL), dog-hum correlation", "setting": "human prediction", "result": 4.2, "unit": "h"}, {"measurement": "Half-Life (HL), rat-hum correlation", "setting": "human prediction", "result": 12.1, "unit": "h"}, {"measurement": "predicted human clearance as share of liver blood flow", "setting": "human prediction", "result": "~ 2 % liver blood flow"}, {"measurement": "Bioavailability (F)", "setting": "[11]", "result": "~35", "unit": "%"}, {"measurement": "pIC50", "setting": "[12]; 336 h, day 14 (14 days drug exposure)", "result": 5.12}, {"measurement": "pIC50", "setting": "[12]; day 19 of culture (14 days drug, 5 days without drug)", "result": 7.54}, {"measurement": "pIC50", "setting": "[12]; day 33 of culture (14 days drug, 19 days without drug)", "result": 7.99}]}
